PubChem BioAssay AID330 (DTP/NCI, 2004)
Several values for one entry are separate records, joined by “and”; a condition that tells them apart may be missing. Equal values may be shown once. Inconclusive results and toxic doses are left out. How the source made its calls: active means survival T/C of 150% or more; inactive means T/C below 125% in these data.

Tested on: P388 leukemia ip, CD2F1 mice, survival T/C
Experiment: NCI In Vivo Anticancer Drug Screen. Data for tumor model P388 Leukemia (intraperitoneal) in CD2F1 (CDF1) mice
Details: endpoint: median survival time, higher = longer survival
In short: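 Mice carrying the transplanted tumor received test compound or vehicle. Survival was recorded in each group, and the value is the treated-group measurement divided by that of the vehicle-treated control group.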

[1] = dose: 50.0 mg/kg/injection, schedule: Q01DX005 (ip), vehicle: saline
[2] = dose: 100.0 mg/kg/injection, schedule: Q01DX005 (ip), vehicle: saline
[3] = dose: 200.0 mg/kg/injection, schedule: Q01DX005 (ip), vehicle: saline
[4] = dose: 12.5 mg/kg/injection, schedule: Q01DX009 (ip), vehicle: saline with Tween-80
[5] = dose: 25.0 mg/kg/injection, schedule: Q01DX009 (ip), vehicle: saline with Tween-80
[6] = dose: 50.0 mg/kg/injection, schedule: Q01DX009 (ip), vehicle: saline with Tween-80
[7] = dose: 50.0 mg/kg/injection, schedule: Q01DX005 (ip), vehicle: Klucel (hydroxypropylcellulose) (HPC)
[8] = dose: 100.0 mg/kg/injection, schedule: Q01DX005 (ip), vehicle: Klucel (hydroxypropylcellulose) (HPC)
[9] = dose: 200.0 mg/kg/injection, schedule: Q01DX005 (ip), vehicle: Klucel (hydroxypropylcellulose) (HPC)
[10] = dose: 60.0 mg/kg/injection, schedule: Q01DX005 (ip), vehicle: saline
[11] = dose: 120.0 mg/kg/injection, schedule: Q01DX005 (ip), vehicle: saline
[12] = dose: 240.0 mg/kg/injection, schedule: Q01DX005 (ip), vehicle: saline
[13] = dose: 60.0 mg/kg/injection, schedule: Q01DX005 (ip), vehicle: saline with Tween-80
[14] = dose: 120.0 mg/kg/injection, schedule: Q01DX005 (ip), vehicle: saline with Tween-80
[15] = dose: 240.0 mg/kg/injection, schedule: Q01DX005 (ip), vehicle: saline with Tween-80
[16] = dose: 100.0 mg/kg/injection, schedule: Q01DX009 (ip), vehicle: saline with Tween-80
[17] = dose: 200.0 mg/kg/injection, schedule: Q01DX009 (ip), vehicle: saline with Tween-80
[18] = dose: 400.0 mg/kg/injection, schedule: Q01DX009 (ip), vehicle: saline with Tween-80
[19] = dose: 30.0 mg/kg/injection, schedule: Q01DX005 (ip), vehicle: saline with Tween-80
[20] = dose: 25.0 mg/kg/injection, schedule: Q01DX005 (ip), vehicle: saline with Tween-80
[21] = dose: 50.0 mg/kg/injection, schedule: Q01DX005 (ip), vehicle: saline with Tween-80
[22] = dose: 100.0 mg/kg/injection, schedule: Q01DX005 (ip), vehicle: saline with Tween-80
[23] = dose: 200.0 mg/kg/injection, schedule: Q01DX005 (ip), vehicle: saline with Tween-80
[24] = dose: 6.25 mg/kg/injection, schedule: Q01DX009 (ip), vehicle: saline with Tween-80

Measured: T/C

Cc1ccc(SNc2ccccc2)cc1
inactive: dose: 50.0 mg/kg/injection, schedule: Q04DX003 (ip), vehicle: saline with Tween-80 96 % of control | dose: 100.0 mg/kg/injection, schedule: Q04DX003 (ip), vehicle: saline with Tween-80 96 % of control

C/C=C1\CN2CC[C@H]1C[C@H]2[C@H](O)c1ccnc2ccc(NCCO)cc12
inactive: [1] 94 % of control | [2] 99 % of control | [3] 99 % of control

N#Cc1ccc(CC(O)(c2ccccc2)c2ccccc2)cc1
inactive: dose: 50.0 mg/kg/injection, schedule: Q01DX009 (ip), vehicle: saline 99 % of control | dose: 100.0 mg/kg/injection, schedule: Q01DX009 (ip), vehicle: saline 101 % of control | dose: 200.0 mg/kg/injection, schedule: Q01DX009 (ip), vehicle: saline 95 % of control | dose: 400.0 mg/kg/injection, schedule: Q01DX009 (ip), vehicle: saline 87 % of control

O=C1C=CC(CCCCCn2ccc(=O)[nH]c2=O)C(=O)N1 (centres undefined)
inactive: dose: 100.0 mg/kg/injection, schedule: Q01DX001 (ip), vehicle: saline 90 % of control | dose: 200.0 mg/kg/injection, schedule: Q01DX001 (ip), vehicle: saline 100 % of control | dose: 400.0 mg/kg/injection, schedule: Q01DX001 (ip), vehicle: saline 100 % of control

O=C(O/N=C1\C2CCC(C2)C1Cl)c1ccc([N+](=O)[O-])cc1 (centres undefined)
inactive: [4] 118 % of control | [5] 122 % of control | [6] 104 % of control

CC1CCCN(c2cc(N(C)C)c([N+](=O)[O-])cc2F)C1 (centres undefined)
inactive: [7] 99 % of control | [8] 107 % of control | [9] 105 % of control

CC(CCc1ccc2c(c1)OCO2)NCC(O)c1ccc(O)c(C(N)=O)c1 (centres undefined)
inactive: dose: 50.0 mg/kg/injection, schedule: Q01DX009 (ip), vehicle: Klucel (hydroxypropylcellulose) (HPC) 93 % of control | dose: 100.0 mg/kg/injection, schedule: Q01DX009 (ip), vehicle: Klucel (hydroxypropylcellulose) (HPC) 94 % of control | dose: 200.0 mg/kg/injection, schedule: Q01DX009 (ip), vehicle: Klucel (hydroxypropylcellulose) (HPC) 100 % of control

CN(C)P(=O)(OCC12C=C(OP(=O)(N(C)C)N(C)C)CC1(COP(=O)(N(C)C)N(C)C)C1CCC2C1)N(C)C (centres undefined)
inactive: [10] 101 % of control | [11] 98 % of control | [12] 102 % of control

NC(N)=NC(N)=NCCS(=O)(=O)O
inactive: [1] 110 % of control | [2] 110 % of control | [3] 117 % of control

N#CC1=C(N)OC(c2ccccc2)=C(C#N)C1c1ccccc1 (centres undefined)
inactive: [13] 98 % of control | [14] 96 % of control | [15] 91 % of control

CC(C)(N)C(=O)O
inactive: [4] 101 % of control | [5] 94 % of control | [6] 100 % of control | [16] 94 % of control | [17] 100 % of control | [18] 94 % of control | dose: 800.0 mg/kg/injection, schedule: Q01DX009 (ip), vehicle: saline with Tween-80 94 % of control | dose: 1600.0 mg/kg/injection, schedule: Q01DX009 (ip), vehicle: saline with Tween-80 94 % of control

CCCCN(CCC#N)C(N)=O
inactive: [7] 100 % of control | [8] 100 % of control | [9] 100 % of control

COc1ccc2oc3c(ccc[n+]3C)c(=O)c2c1
inactive: [19] 107 % of control | [13] 120 % of control | [14] 107 % of control

COC(=O)c1cc(C)cc(O)c1C
inactive: [6] 102 % of control | [16] 101 % of control | [17] 99 % of control | [18] 101 % of control

ClCCc1cnc[nH]1
inactive: dose: 6.25 mg/kg/injection, schedule: Q01DX009 (ip), vehicle: water 101 % of control | dose: 12.5 mg/kg/injection, schedule: Q01DX009 (ip), vehicle: water 101 % of control | dose: 25.0 mg/kg/injection, schedule: Q01DX009 (ip), vehicle: water 108 % of control | dose: 50.0 mg/kg/injection, schedule: Q01DX009 (ip), vehicle: water 110 % of control | dose: 100.0 mg/kg/injection, schedule: Q01DX009 (ip), vehicle: water 95 % of control

COc1ccc2cc(C(=O)c3ccccc3)c(=O)oc2c1
inactive: [13] 93 % of control | [14] 96 % of control | [15] 96 % of control

[N-]=[N+]=CC(=O)C1OC12C1CC3CC(C1)CC2C3 (centres undefined)
inactive: [20] 86 % of control | [21] 105 % of control | [22] 113 % of control | [23] 113 % of control

Cc1nnc2c3[nH]c4ccccc4c3cnn12
inactive: [10] 104 % of control | [11] 95 % of control | [12] 103 % of control

COc1c2occc2c(N=Cc2ccc([N+](=O)[O-])cc2)c2ccc(=O)oc12
inactive: dose: 0.38 mg/kg/injection, schedule: Q01DX005 (ip), vehicle: saline with Tween-80 99 % of control | dose: 0.75 mg/kg/injection, schedule: Q01DX005 (ip), vehicle: saline with Tween-80 98 % of control | dose: 1.5 mg/kg/injection, schedule: Q01DX005 (ip), vehicle: saline with Tween-80 90 % of control | dose: 6.25 mg/kg/injection, schedule: Q01DX005 (ip), vehicle: saline with Tween-80 87 % of control | [22] 87 % of control | [23] 98 % of control

NNC(=O)c1cnn(-c2ccccc2)c1N
inactive: dose: 15.0 mg/kg/injection, schedule: Q01DX005 (ip), vehicle: saline with Tween-80 99 % of control | [19] 93 % of control | [13] 99 % of control and 94 % of control

O=C(CNC(=O)Nc1cccc([N+](=O)[O-])c1)NNC(=O)Nc1ccc(Cl)c([N+](=O)[O-])c1
inactive: [13] 91 % of control | [14] 91 % of control | [15] 106 % of control

O=S(Nc1ccccc1)Nc1ccccc1
inactive: [5] 100 % of control | [6] 100 % of control | [16] 90 % of control

C=C1C(=O)O[C@@H]2/C=C(\C)CC/C=C(/COC(C)=O)C[C@@H](OC(C)=O)[C@@H]12
inactive: [24] 97 % of control | dose: 9.0 mg/kg/injection, schedule: Q01DX009 (ip), vehicle: acetone 106 % of control | [4] 103 % of control | dose: 18.0 mg/kg/injection, schedule: Q01DX009 (ip), vehicle: acetone 106 % of control | [5] 106 % of control | dose: 36.0 mg/kg/injection, schedule: Q01DX009 (ip), vehicle: acetone 109 % of control | dose: 72.0 mg/kg/injection, schedule: Q01DX009 (ip), vehicle: acetone 124 % of control

COc1cc2c(c(OC)c1OC)C(=O)/C(=C\c1ccccc1)O2
inactive: dose: 3.13 mg/kg/injection, schedule: Q01DX009 (ip), vehicle: saline with Tween-80 105 % of control | [24] 101 % of control and 102 % of control and 95 % of control | [4] 100 % of control and 105 % of control and 114 % of control | [5] 105 % of control and 121 % of control and 93 % of control | [6] 118 % of control and 96 % of control

Cc1ccc(S(=O)(=O)Oc2ccc3sc4cccc(NCCN(C)C)c4c(=O)c3c2)cc1
inactive: dose: 12.5 mg/kg/injection, schedule: Q01DX005 (ip), vehicle: saline with Tween-80 104 % of control | [20] 93 % of control | [21] 90 % of control and 96 % of control | [22] 92 % of control and 94 % of control | [23] 92 % of control | dose: 400.0 mg/kg/injection, schedule: Q01DX005 (ip), vehicle: saline with Tween-80 94 % of control

CSC1=NC(C)(C)N=C(Oc2cc(Cl)cc(Cl)c2)N1
inactive: [13] 89 % of control | [14] 94 % of control | [15] 92 % of control

CCN(CC)CCNc1cccc2c(C)cc(=O)[nH]c12
inactive: [21] 103 % of control | [22] 101 % of control

Cc1ccc(C2=C(C#N)C(c3ccccc3)C(C#N)=C(N)O2)cc1 (centres undefined)
inactive: [7] 97 % of control | [8] 95 % of control

C1=CC2OC2CCCCCCCC1 (mixture of isomers)
inactive: [5] 106 % of control | [6] 107 % of control | [16] 109 % of control

Cc1ccc(C(=S)N=P(c2ccccc2)(c2ccccc2)c2ccccc2)cc1
inactive: [21] 99 % of control | [22] 107 % of control | [23] 100 % of control
